Structures are written as SMILES.

This experiment deals with HCV 1b-377-neo replicon cells. Put plainly: HCV Replicon assay, HCV 1b-377-neo replicon cells. Type of experiment: cell-based, HCV 1b genotype. As to conditions: Hepatitis C virus, Table 2, read-out: Range (EC50 against HCV 1b).
Consider `COC(=O)N[C@@H](C(=O)N[C@@H](C)c1ncc(-c2ccc(-c3cnc(-c4cnc([C@@H]5CCCN5C(=O)[C@H](NC(=O)OC)c5ccccc5)[nH]4)cn3)cc2)[nH]1)c1ccccc1` [Example 152j-28, methyl ((1R)-2-((2S)-2-(5-(5-(4-(2-((1S)-1-(((2R)-2-((methoxycarbonyl)amino)-2-phenylace-tyl)amino)eth-yl)-1H-imidazol-5-yl)phenyl)-2-pyrazinyl)-1H-imidazol-2-yl)-1-pyrrolidinyl)-2-oxo-1-phenylethyl)carbamate], for which the EC50 lay within 0.001 to 0.999 nM.
Consider `COC(=O)N[C@@H](C(=O)N(C)[C@@H](C)c1ncc(-c2ccc(-c3ncc(-c4cnc([C@@H]5CCCN5C(=O)[C@@H](c5ccccc5)N5CCCCC5)[nH]4)cn3)cc2)[nH]1)c1ccccc1` [Example 152l-1, methyl ((1R)-2-(methyl((1S)-1-(4-(4-(5-(2-((2S)-1-((2R)-2-phenyl-2-(1-piperidinyl)acetyl)-2-pyrrolidinyl)-1H-imidazol-5-yl)-2-pyrimidinyl)phenyl)-1H-imidazol-2-yl)ethyl)amino)-2-oxo-1-phenylethyl)carbamate], for which the EC50 lay in the range of 0.001 to 0.999 nM.
As to `COC(=O)N[C@@H](C(=O)N[C@@H](C)c1ncc(-c2ccc(-c3ncc(-c4cnc([C@@H]5CCCN5C(=O)[C@@H](c5ccccc5)N5CCCCC5)[nH]4)cn3)cc2)[nH]1)c1ccccc1` [Example 152l-2, methyl ((1R)-2-oxo-1-phenyl-2-(((1S)-1-(4-(4-(5-(2-((2S)-1-((2R)-2-phenyl-2-(1-piperidinyl)acetyl)-2-pyrrolidinyl)-1H-imidazol-5-yl)-2-pyrimidinyl)phenyl)-1H-imidazol-2-yl)ethyl)amino)ethyl) carbamate], the EC50 lay in the range of 0.001 to 0.999 nM.
The figure for `COC(=O)N[C@@H](C(=O)N1CCC[C@H]1c1ncc(-c2ccc(-c3ncc(-c4cnc([C@@H]5CCCN5C(=O)[C@@H](c5ccccc5)N5CCCCC5)[nH]4)cn3)cc2)[nH]1)c1ccccc1` [Example 152l-3, methyl ((1R)-2-oxo-1-phenyl-2-((2S)-2-(4-(4-(5-(2-((2S)-1-((2R)-2-phenyl-2-(1-piperidinyl)acetyl)-2-pyrrolidinyl)-1H-imidazol-5-yl)-2-pyrimidinyl)phenyl)-1H-imidazol-2-yl)-1-pyrrolidinyl)ethyl) carbamate] is 0.001 to 0.999 nM; for `CN(C)[C@@H](C(=O)N1CCC[C@H]1c1ncc(-c2ccc(-c3ccc(-c4cnc([C@@H]5CCCN5C(=O)[C@@H](c5ccccc5)N(C)C)[nH]4)nn3)nn2)[nH]1)c1ccccc1` [Example 153c-1, (1R,1′R)-2,2′-(3,3′-bipyridazine-6,6′-diylbis(1H-imidazole-5,2-diyl(2S)-2,1-pyrrolidinediyl))bis(N, N-dimethyl-2-oxo-1-phenylethanamine)] it is 1 to 99 nM; for `COC(=O)N[C@@H](C(=O)N1CCC[C@H]1c1ncc(-c2ccc(-c3ccc(-c4cnc([C@@H]5CCCN5C(=O)[C@H](NC(=O)OC)c5ccccc5)[nH]4)nn3)nn2)[nH]1)c1ccccc1` [Example 153c-2, dimethyl (3,3′-bipyridazine-6,6′-diylbis(1H-imidazole-5,2-diyl(2S)-2,1-pyrrolidinediyl((1R)-2-oxo-1-phenyl-2,1-ethanediyl))) biscarbamate] it is 1 to 99 nM.
The figure for `CN(C)[C@@H](C(=O)N1CCC[C@H]1c1ncc(-c2cnc(-c3ncc(-c4cnc([C@@H]5CCCN5C(=O)[C@@H](c5ccccc5)N(C)C)[nH]4)cn3)nc2)[nH]1)c1ccccc1` [Example 153c-3, (1R,1′R)-2,2′-(2,2′-bipyrimidine-5,5′-diylbis(1H-imidazole-5,2-diyl(2S)-2,1-pyrrolidinediyl))bis(N, N-dimethyl-2-oxo-1-phenylethanamine)] is 1000 to 10000 nM; for `COC(=O)N[C@@H](C(=O)N1CCC[C@H]1c1ncc(-c2cnc(-c3ncc(-c4cnc([C@@H]5CCCN5C(=O)[C@H](NC(=O)OC)c5ccccc5)[nH]4)cn3)nc2)[nH]1)c1ccccc1` [Example 153c-4, dimethyl (2,2′-bipyrimidine-5,5′-diylbis(1H-imidazole-5,2-diyl(2S)-2,1-pyrrolidinediyl((1R)-2-oxo-1-phenyl-2,1-ethanediyl))) biscarbamate] it is 1000 to 10000 nM.
Regarding `CN(C)[C@@H](C(=O)N1CCC[C@H]1c1ncc(-c2cnc(-c3cnc(-c4cnc([C@@H]5CCCN5C(=O)[C@@H](c5ccccc5)N(C)C)[nH]4)cn3)cn2)[nH]1)c1ccccc1` [Example 153c-5, (1R,1′R)-2,2′-(2,2′-bipyrazine-5,5′-diylbis(1H-imidazole-5,2-diyl(2S)-2,1-pyrrolidinediyl))bis(N, N-dimethyl-2-oxo-1-phenylethanamine)], the 50% effective concentration (EC50) was in the range of 1 to 99 nM.
Take `COC(=O)N[C@@H](C(=O)N1CCC[C@H]1c1ncc(-c2cnc(-c3cnc(-c4cnc([C@@H]5CCCN5C(=O)[C@H](NC(=O)OC)c5ccccc5)[nH]4)cn3)cn2)[nH]1)c1ccccc1` [Example 153c-6, dimethyl (2,2′-bipyrazine-5,5′-diylbis(1H-imidazole-5,2-diyl(2S)-2,1-pyrrolidinediyl((1R)-2-oxo-1-phenyl-2,1-ethanediyl))) biscarbamate]: the EC50 lay within 1 to 99 nM.
For `COC(=O)N[C@@H](C(=O)N[C@@H](C)c1ncc(-c2ccc(-c3ccc(-c4cnc([C@H](C)NC(=O)[C@H](NC(=O)OC)c5ccccc5)[nH]4)cn3)nc2)[nH]1)c1ccccc1` [Example 153c-7, dimethyl (2,2′-bipyridine-5,5′-diylbis(1H-imidazole-5,2-diyl(1S)-1,1-ethanediylimino((1R)-2-oxo-1-phenyl-2,1-ethanediyl))) biscarbamate], the EC50 lay in the range of 1 to 99 nM.
On to `COC(=O)N[C@@H](C)C(=O)N1CCC[C@H]1c1nc(-c2cnc(-c3ccc(-c4cnc([C@@H]5CCCN5C(=O)[C@H](C)NC(=O)OC)[nH]4)c(F)c3)nc2)c[nH]1` [Example D67, methyl ((1S)-2-((2S)-2-(5-(2-fluoro-4-(5-(2-((2S)-1-(N-(methoxycarbonyl)-L-alanyl)-2-pyrrolidinyl)-1H-imidazol-5-yl)-2-pyrimidinyl)phenyl)-1H-imidazol-2-yl)-1-pyrrolidinyl)-1-methyl-2-oxoethyl)carbamate], for which the EC50 lay within 0.001 to 0.999 nM.
The figure for `COC(=O)N[C@H](C(=O)N1CCC[C@H]1c1nc(-c2cnc(-c3ccc(-c4cnc([C@@H]5CCCN5C(=O)[C@@H](NC(=O)OC)C(C)C)[nH]4)c(F)c3)nc2)c[nH]1)C(C)C` [Example D68, methyl ((1S)-1-(((2S)-2-(5-(2-fluoro-4-(5-(2-((2S)-1-((2S)-2-((methoxycarbonyl)amino)-3-methylbutanoyl)-2-pyrrolidinyl)-1H-imidazol-5-yl)-2-pyrimidinyl)phenyl)-1H-imidazol-2-yl)-1-pyrrolidinyl)carbonyl)-2-methylpropyl) carbamate] is 0.001 to 0.999 nM; for `COC(=O)N[C@@H](C(=O)N1CCC[C@H]1c1nc(-c2cnc(-c3ccc(-c4cnc([C@@H]5CCCN5C(=O)[C@H](NC(=O)OC)c5ccccc5)[nH]4)c(F)c3)nc2)c[nH]1)c1ccccc1` [Example D69, methyl ((1R)-2-((2S)-2-(5-(2-(3-fluoro-4-(2-((2S)-1-((2R)-2-((methoxycarbonyl)amino)-2-phenylacetyl)-2-pyrrolidinyl)-1H-imidazol-5-yl)phenyl)-5-pyrimidinyl)-1H-imidazol-2-yl)-1-pyrrolidinyl)-2-oxo-1-phenylethyl) carbamate] it is 0.001 to 0.999 nM.

One may read the EC50 as the concentration at which the effect is half-maximal.

(Values after US7745636B2, “Hepatitis C virus inhibitors” (Bristol-Myers Squibb Company, priority 2006, dated 2010).)
